From US6579881B2 (Eisai Co., Ltd., priority 1997, dated 2003)
pKi: −log10 of the molar value. Counter-ions that a name gives are not always drawn. Like-named read-outs stand apart in the source and are kept apart here.

Experiments:
serotonin 1A receptor = biological target: T1, serotonin 1A receptor (Rattus norvegicus, UniProt P19327); assay: Binding test on [3H] 8-hydroxy-dipropylaminotetralin (serotonin 1A receptor); conditions: [3H] 8-OH-DPAT 0.5 nM, receptor fraction of rat hippocampus; read-out: 5HT1a
T1 construct: To the receptor fraction of the hippocampus were added a test compound and 0.5 nM of [^3H]; 8-hydroxy-dipropylaminotetralin; from tissue; host or cells: SD rat hippocampus, membrane (receptor) fraction
T1 sequence (P19327 1-422): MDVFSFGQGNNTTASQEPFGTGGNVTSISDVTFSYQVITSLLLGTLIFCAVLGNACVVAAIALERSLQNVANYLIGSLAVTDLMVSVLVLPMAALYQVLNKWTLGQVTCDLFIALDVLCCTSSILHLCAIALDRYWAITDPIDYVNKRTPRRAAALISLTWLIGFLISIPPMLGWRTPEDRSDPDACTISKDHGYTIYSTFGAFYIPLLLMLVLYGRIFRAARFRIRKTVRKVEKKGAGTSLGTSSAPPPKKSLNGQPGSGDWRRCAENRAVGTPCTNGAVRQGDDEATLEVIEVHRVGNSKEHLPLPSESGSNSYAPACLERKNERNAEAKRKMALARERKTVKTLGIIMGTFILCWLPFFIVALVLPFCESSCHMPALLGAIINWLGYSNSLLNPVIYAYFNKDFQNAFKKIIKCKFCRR

α1 adrenalin receptor = assay: Binding test on [3H] prazosin (α1 adrenalin receptor); set-up: species or system rat; conditions: [3H] prazosin about 0.2 nM, receptor fraction of rat cerebral cortex
Method: Methysergide maleate was dissolved in distilled water before using.
Use was made of SD rats aged 6 to 8 weeks.
The rats were sacrificed by dcapitation to extirpate the cerebra.
The hippocampus was mixed with 50 times (on the wet weight basis) as much a 0.32 M sucrose solution while the cortex was mixed with 10 times as much the same solution. Each mixture was homogenized by using a Teflon glass homogenizer and centrifuged at 1,000×g for 10 min. The supernatant thus obtained was further centrifuged at 20,000×g for 20 min. The obtained precipitate was re-suspended in 50 times (based on the intial wet weight; in the case of the hippocampus) or 10 times (in the case of the cortex) as much a 50 mM Tris hydrochloride (pH 7.4) and incubated at room temperature for 30 min. After centrifuging at 20,000×g for 20 min, the obtained precipitate was further suspended and centrifuged twice each in the same manner. The precipitate thus obtained was suspended in 100 times (based on the initial wet weight; in the case of the hippocampus) or 20 times (in the case of the cortex) as much a 50 mM Tris hydrochloride solution (pH 7.4) to thereby give a receptor fraction. This receptor fraction was stored at −80° C. until using.
(Binding Test on [^3H] Prazosin)
Next, it was filtered through a glass filter with the use of a cell harvester. After washing the glass filter with 50 mM Tris hydrochloride (pH 7.4), the radioactivity of the receptor was measured with a liquid scintillation counter. The binding detected in the presence of 10 μM of phentolamine was referred to as the nonspecific binding.
Subsequently, the abilities of typical examples of the compounds of the present invention to bind to the α1 adrenalin receptor were evaluated by the test method described above.

serotonin 2 receptor = serotonin 2 receptor (Rattus norvegicus, UniProt P14842); assay: Binding test on [3H] ketanserin (serotonin 2 receptor)
[1] = [3H] ketanserin 0.3 nM, receptor fraction of rat cerebral cortex, read-out: 5HT2

serotonin 2 receptor, sequence (P14842 whole entry): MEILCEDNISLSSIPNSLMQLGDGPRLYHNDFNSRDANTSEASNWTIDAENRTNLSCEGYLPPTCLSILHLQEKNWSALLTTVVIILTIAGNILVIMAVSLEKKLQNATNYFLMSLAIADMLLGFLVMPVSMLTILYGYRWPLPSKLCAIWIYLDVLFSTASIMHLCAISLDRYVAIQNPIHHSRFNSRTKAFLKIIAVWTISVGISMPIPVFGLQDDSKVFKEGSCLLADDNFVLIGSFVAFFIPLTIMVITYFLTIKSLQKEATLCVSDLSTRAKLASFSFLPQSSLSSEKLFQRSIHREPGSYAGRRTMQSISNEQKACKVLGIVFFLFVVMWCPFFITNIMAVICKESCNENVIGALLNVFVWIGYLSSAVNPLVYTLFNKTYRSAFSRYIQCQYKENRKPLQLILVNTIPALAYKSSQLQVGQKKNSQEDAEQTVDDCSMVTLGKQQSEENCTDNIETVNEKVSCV

Compound	pKi (serotonin 1A receptor)	pKi (α1 adrenalin receptor)	pKi (serotonin 2 receptor)	pKi (serotonin 2 receptor; [1])
CC(=O)N1CCC(CNC(=O)Cc2ccc3ccn(C4CCN(CCc5ccc(F)cc5)CC4)c3c2)CC1 [Example 343, Oxalate]	8.81	7.42	8.79	–
CCCC(=O)NCc1ccc2ccn(C3CCN(CCc4ccc(F)cc4)CC3)c2c1 [Example 362, 1-[1-(4-fluorophenethyl)piperidin-4-yl]-6-(n-butyryl)aminomethylindole]	9.34	6.84	–	8.45
Fc1ccc(CCCN2CCC(N3CCc4ccccc43)CC2)cc1 [Example 13, 1-[1-(4-fluorophenylpropyl)piperidin-4-yl]indoline]	7.62	6.73	–	< 6.70
COc1ccc2c(c1)N(C1CCN(CCc3ccc(F)cc3)C1)CC2 (stereo not drawn) [Example 292, 1-[1-(4-fluorophenethyl)pyrrolidin-3-yl]-6-methoxyindoline]	7.04	6.75	–	7.23
CC(=O)NCc1ccc2ccn(C3CCN(CCc4ccc(C(C)O)cc4)CC3)c2c1 (stereo not drawn) [Example 388, 1-{4-[(1-hydroxyethyl)phenethyl]piperidin-4-yl}-6-acetamidomethylindole]	8.65	6.44	–	< 7.70
O=C(Cc1ccc2ccn(C3CCN(CCc4ccc(F)cc4)CC3)c2c1)NCc1ccccn1 [Example 341, 1-[1-(4-fluorophenethyl)piperidin-4-yl]-6-(pyridin-2-yl)methylcarbamoylmethylindole Oxalate]	8.68	7.32	–	9.17
O=C(CCN1CCCCC1)NCc1ccc2ccn(C3CCN(CCc4ccc(F)cc4)CC3)c2c1 [Example 379, 1-[1-(4-fluorophenethyl)piperidin-4-yl]-6-[3-(piperidin-1-yl)propionylamino]methylindole]	8.02	7.52	–	8.90
O=C1CCCN1Cc1ccc2ccn(C3CCN(CCc4ccc(F)cc4)CC3)c2c1 [Example 358, 1-[1-(4-fluorophenethyl)piperidin-4-yl]-6-(2-pyrrolidon-1-yl)methylindole]	9.14	7.38	–	7.85
CC(O)c1ccc2ccn(C3CCN(CCc4ccc(F)cc4)CC3)c2c1 (stereo not drawn) [Example 392, 1-[1-(4-fluorophenethyl)piperidin-4-yl]-6-(1-hydroxyethyl)indole Oxalate]	9.19	7.60	–	7.42
CC(=O)NCc1ccc2c(C#N)cn(C3CCN(CCc4ccc(F)cc4)CC3)c2c1 [Example 387, 3-cyano-1-[1-(4-fluorophenethyl)piperidin-4-yl]-6-acetamidomethylindole]	7.20	7.58	–	< 7.70
CS(=O)(=O)NCc1ccc(CCN2CCC(N3CCc4ccccc43)CC2)cc1 [Example 38, 1-[1-(4-methanesulfonylaminomethylphenethyl)piperidin-4-yl]indoline]	7.82	6.61	–	7.66
Nc1nc2cc3c(cc2s1)CCN3C1CCN(CCc2ccc(F)cc2)CC1 [Example 235]	9.70	7.11	–	7.84
CNOOSCc1ccc2c(c1)N(C1CCN(CCc3ccc(F)cc3)CC1)CC2 [Example 164, 1-[1-(4-fluorophenethyl)piperidin-4-yl]-6-(N-methylsulfamoylmethyl)indoline]	9.27	6.20	–	7.47
CC(=O)NCc1ccc2ccn(C3CCN(CCCc4ccc(F)cc4)CC3)c2c1 [Example 360, 1-{1-[3-(4-fluorophenyl)propyl]-piperidin-4-yl}-6-acetamidomethylindole]	7.58	6.16	–	< 7.70
1-[1-(4-fluorophenethyl)piperidin-4-yl]-7-hydroxy-(4a,7a)-cyclohexanoindoline and 1-[1-(4-fluorophenethyl)piperidin-4-yl]-4-hydroxy-(3b,6a)-cyclohexanoindoline [Example 236]	7.53	7.14	–	7.97
O=C(CCCO)NCc1ccc2ccn(C3CCN(CCc4ccc(F)cc4)CC3)c2c1 [Example 329, 1-[1-(4-fluorophenethyl)piperidin-4-yl]-6-(4-hydroxybutyroylamidomethyl)indole Oxalate]	8.69	6.83	–	8.62
O=C(CF)NCc1ccc2ccn(C3CCN(CCc4ccccc4F)CC3)c2c1 [Example 381, 1-[1-(2-fluorophenethyl)piperidin-4-yl]-6-fluoroacetamidomethylindole]	8.86	7.00	–	8.69
CCNC(=O)CCc1ccc2ccn(C3CCN(CCc4ccc(F)cc4)CC3)c2c1 [Example 311, 1-[1-(4-fluorophenethyl)piperidin-4-yl]-6-[2-(ethylcarbamoyl)ethyl]indole Oxalate]	8.97	7.07	–	7.33

Compound	pKi (serotonin 1A receptor)	pKi (α1 adrenalin receptor)	pKi (serotonin 2 receptor)	pKi (serotonin 2 receptor; [1])
O=C(NCc1ccc2ccn(C3CCN(CCc4ccc(F)cc4)CC3)c2c1)n1ccnc1 [Example 368, 1-[1-(4-fluorophenethyl)piperidin-4-yl]-6-imidazocarbonylaminomethylindole]	8.79	7.42	–	9.25
CNCc1ccc2ccn(C3CCN(CCc4ccc(F)cc4)CC3)c2c1 [Example 361, 1-[1-(4-fluorophenethyl)piperidin-4-yl]-6-N-methylaminomethylindole]	9.57	7.11	–	< 7.70
CC(=O)NCc1ccc2ccn(C3CCN(CCc4cccnc4)CC3)c2c1 [Example 386, 1-{1-[2-(3-Pyridyl)ethyl]piperidin-4-yl}-6-acetamidomethylindole]	8.27	7.58	–	< 7.70
O=S1(=O)CCCN1Cc1ccc2ccn(C3CCN(CCc4ccc(F)cc4)CC3)c2c1 [Example 326, 1-[1-(4-fluorophenethyl)piperidin-4-yl]-6-(1,3-propanesultam-2-yl)methylindole]	9.40	6.78	–	< 7.70
COc1ccc2c(c1)N(C1CCCN(CCc3ccc(F)cc3)CC1)CC2 (stereo not drawn) [Example 291, 1-[1-(4-fluorophenethyl)homopiperidin-4-yl]-6-methoxyindoline]	8.16	6.77	–	7.00
CC(=O)N(C)Cc1ccc2ccn(C3CCN(CCc4ccc(F)cc4)CC3)c2c1 [Example 359, 1-[1-(4-fluorophenethyl)piperidin-4-yl]-6-N-methylacetamidomethylindole]	9.15	7.12	–	8.13
Cc1nc2sccn2c(=O)c1CCN1CCC(N2CCc3ccccc32)CC1 [Co. No. 5 given in WO96/23784, 1-{1-[2-(5-oxo-7-methyl-5H-pyrimidino[2,1-b][1,3]thiazol-6-yl)ethyl]piperidin-4-yl}indoline, reference compound]	–	7.77	–	–
CCC(=O)NCc1ccc2c(c1)N(C1CCN(CCc3ccc(F)cc3)CC1)CC2 [Example 156, 1-[1-(4-fluorophenethyl)piperidin-4-yl]-6-propionylaminomethylindoline]	8.11	–	–	8.59
1-[1-(4-fluorophenethyl)piperidin-4-yl]-6-(1,2,3-triazol-1-yl)methylindoline and 1-[1-(4-fluorophenethyl)piperidin-4-yl]-6-(1,2,3-triazol-2-yl)methylindoline [Example 212]	9.09	–	–	9.44
Clc1cccc(CCN2CCC(N3CCc4ccccc43)CC2)c1 [Example 5, 1-[1-(3-chlorophenethyl)piperidin-4-yl]indoline]	8.00	–	–	8.09
Fc1ccc(CCN2CCC(N3CCc4ccccc43)CC2)c(F)n1 [Example 57, 1-[1-(2,6-difluoro-3-pyridylethyl)piperidin-4-yl]indoline]	7.84	–	–	8.96
CCN1CCC(N2CC(c3ccc(F)cc3)c3ccccc32)CC1 (stereo not drawn) [Example 240, 1-(1-ethylpiperidin-4-yl)-3-(4-fluorophenyl)indoline]	< 6.70	–	–	7.56
CCS(=O)(=O)Nc1ccc2c(c1)N(C1CCN(CCc3ccc(F)cc3)CC1)CC2 [Example 117, 1-[1-(4-fluorophenethyl)piperidin-4-yl]-6-ethanesulfonylaminoindoline]	9.22	–	–	7.97
Fc1ccc(CCN2CCC(N3CCc4cccnc43)CC2)cc1 [Example 260, 1-[1-(4-fluorophenethyl)piperidin-4-yl]-7-azaindoline]	8.89	–	–	7.89
CC1CC(C2CCN(CCc3ccc(F)cc3)CC2)c2nccnc21 (mixture of isomers) [Example 266, 5-[1-(4-fluorophenethyl)piperidin-4-yl]-7-methyl-5,6-dihydro-5H-cyclopentapyrazine]	7.50	–	–	7.65
Cn1cccc1-c1ccc2c(c1)N(C1CCN(CCc3ccc(F)cc3)CC1)CC2 [Example 173, 1-[1-(4-fluorophenethyl)piperidin-4-yl]-6-(1-methylpyrrol-2-yl)indoline]	10.22	–	–	7.15
Fc1ccc(CCN2CCC(N3CCc4ccc(Cl)nc43)CC2)c(F)c1 [Example 262, 1-[1-(2,4-difluorophenethyl)piperidin-4-yl]-6-chloro-7-azaindoline]	8.82	–	–	8.68
